Columns and labels:
Type in all cases: in vivo
[1] = test system: fall armyworm (Spodoptera frugiperda (J. E. Smith)); test: Test E: fall armyworm control on corn plants, plant damage rating and mortality after 6 days
Protocol: (§1) The pest control protection afforded by the mixtures or compositions is not limited, however, to these species. The analysis of enhanced activity between the mixtures or compositions was determined using Colby's equation. The average % mortality data for the test compounds alone were inserted into the Colby's equation. If the observed (obs) average % mortality was higher than “p”, the expected (exp) % mortality, the mixture or composition had enhanced effects. If the observed average % mortality was equal to or lower than the expected mortality, the mixture or composition either had no enhanced effect. For bioassays where insect feeding damage was evaluated, enhanced activity is identified when the observed plant damage is less than the expected plant damage rating; ratings ranged between 0 (no damage) and 10 (dead plant) and each value was converted to a % plant protection. 100−(Obs Plant Damage*10)
For evaluating control of fall armyworm (Spodoptera frugiperda (J. E. Smith)) the test unit consisted of a small open container with a 4-5-day-old corn (maize) plant inside. This was pre-infested with 10-15 1-day-old larvae on a piece of insect diet. Test compounds were formulated and sprayed with 3 replications as described for Test A. After spraying of the formulated test compound, the test units were maintained in a growth chamber for 6 days at 25° C. and 70% relative humidity. Plant feeding damage was then visually assessed based on foliage consumed, and larvae were assessed for mortality. Each test unit was then visually assessed for plant damage and rated 0-10, where 0=undamaged and 10=plant is dead; the results are listed in Tables 6d-i.

[2] = test system: silverleaf whitefly (Bemisia argentifolii Bellows and Perring); test: Test A: silverleaf whitefly control on cotton or soybean plants, spray, insect mortality after 13 days; settings: for % Mortality (obs): applied alone
Protocol: as §1
For evaluating control of silverleaf whitefly (Bemisia argentifolii Bellows and Perring) through contact and/or systemic means, each test unit consisted of a small open container with a 12- to 14-day-old cotton plant or 5-7 day old soybean plant inside. This was pre-infested by placing test units into cages containing adult whiteflies so that oviposition on the cotton leaves could occur. The adults were removed from the plants with an air-blast nozzle, and the test units were capped. The test units were then stored 2 to 3 days before spraying.
Test compounds were formulated using a solution containing 10% acetone, 90% water and 300 ppm Activator 90@ Spreader Lo-Foam Formula non-ionic surfactant containing alkylarylpolyoxyethylene, free fatty acids, glycols and 2-propanol (Loveland Industries, Inc.) to provide the desired concentration in ppm. Formulated test solutions were then applied in 1 mL volumes through a SUJ2 atomizer nozzle with ⅛ JJ custom body (Spraying Systems Co.) positioned 1.27 cm (0.5 inches) above the top of each test unit.
The results for all experimental compositions in this test were replicated three times. After spraying of the formulated test composition, each test unit was allowed to dry for 1 hour and the cap removed. The test units were held for 13 days in a growth chamber at 28° C. and 50-70% relative humidity.

[3] = test system: cotton melon aphid (Aphis gossypii Glover); test: Test D: cotton melon aphid control on okra plants, insect mortality after 6 days
Protocol: The analysis of enhanced activity between the mixtures or compositions was determined using Colby's equation. The average % mortality data for the test compounds alone were inserted into the Colby's equation. If the observed (obs) average % mortality was higher than “p”, the expected (exp) % mortality, the mixture or composition had enhanced effects. If the observed average % mortality was equal to or lower than the expected mortality, the mixture or composition either had no enhanced effect. For bioassays where insect feeding damage was evaluated, enhanced activity is identified when the observed plant damage is less than the expected plant damage rating; ratings ranged between 0 (no damage) and 10 (dead plant) and each value was converted to a % plant protection. 100−(Obs Plant Damage*10)
For evaluating control of cotton melon aphid (Aphis gossypii Glover) through contact and/or systemic means, each test unit consisted of a small open container with a 6- to 7-day-old okra plant inside. This was pre-infested by placing on a leaf of the test plant 30 to 40 aphids on a piece of leaf excised from a culture plant (cut-leaf method). The […] moved onto the test plant as the leaf piece desiccated. After pre-infestation, the soil of the test unit was covered with a layer of sand.
Test compounds were formulated and sprayed as described for Test A. The applications were replicated three times. After spraying of the formulated test compounds, each test unit was allowed to dry for 1 hour and then a black, screened cap was placed on top. […]

[4] = test system: Western Flower Thrips (Frankliniella occidentalis Pergande); test: Test B: Western Flower Thrips control on bean plants, plant damage rating converted to % plant protection after 7 days
Protocol: as §1
Thus, a plant given a plant damage rating of 3 out of 10 is equivalent to 70% plant protection In all of these tests, compounds of Formula I are Compounds 1 (Cpd 1), 2 (Cpd2), and 3 (Cpd3) and compounds of Formula II are compounds 4 (Cpd4) and 5 (Cpd 5).
For evaluating control of the Western Flower Thrips (Frankliniella occidentalis Pergande) through contact and/or systemic means, each test unit consisted of a small open container with a 5- to 7-day-old bean (var. Soleil) plant inside.
Test solutions were formulated and sprayed with 3 replications as described for Test A. After spraying, the test units were allowed to dry for 1 hour, 22 to 27 adult thrips were added to each unit and then a black, screened cap was placed on top. The test units were held for 7 days at 25° C. and 45-55% relative humidity. To evaluate the level of plant protection provided by each treatment, each test unit was then visually assessed for plant damage inflicted by insect feeding and rated 0-10, where 0=undamaged and 10=plant is dead; the results are listed in Tables 3a-g.

[5] = test system: corn planthopper (Peregrinus maidis (Ashmead)); test: Test C: corn planthopper control on corn plants, insect mortality after 6 days; settings: for % Mortality (obs): Table 4e
Protocol: as §1
For evaluating control of corn planthopper (Peregrinus maidis (Ashmead)) through contact and/or systemic means, the test unit consisted of a small open container with a 3-4-day-old corn (maize) plant inside. White sand was added to the top of the soil prior to application of the test compound.
Test compounds were formulated and sprayed at 250 and/or 50 ppm and/or 10 ppm. After spraying of the formulated test compound, the test units were allowed to dry for 1 h before they were post-infested with ˜15-20 nymphs (18-to-21-day-old). […]

[6] = test system: Potato Leafhopper (Empoasca fabae Harris); test: Test C: Potato Leafhopper control on bean plants, insect mortality after 6 days; settings: read-out: % Mortality (obs)
Protocol: as §1
For evaluating control of Potato Leafhopper (Empoasca fabae Harris) through contact and/or systemic means, each test unit consisted of a small open container with a 5- to 6-day-old Longio bean plant (primary leaves emerged) inside. White sand was added to the top of the soil, and one of the primary leaves was excised prior to application. Test compounds were formulated and sprayed with 3 replications as described for Test A. After spraying, the test units were allowed to dry for 1 hour before they were infested with 5 potato leafhoppers (18- to 21-day-old adults). A black, screened cap was placed on the top of each container. The test units were held for 6 days in a growth chamber at 19-21° C. and 50-70% relative humidity.

[7] = Spodoptera frugiperda, 144 h, read-out: Plant Protection (obs)
[8] = Bemisia argentifolii, read-out: % Mortality (obs)
[9] = Aphis gossypii, read-out: % Mortality (obs)
[10] = Peregrinus maidis, read-out: % Mortality (obs)
[11] = Peregrinus maidis, 96 h, read-out: % Mortality (obs)

Compound: O=C(NC(=O)c1c(F)cccc1F)Nc1ccc(OC(F)(F)C(F)OC(F)(F)F)c(Cl)c1 (centres unmarked) [Novaluron, novaluron, reference compound]
- pest or weed control at 0.21 ppm [1, 7]: 33.3%
- pest or weed control at 0.36 ppm [1, 7]: 80%

Compound: CNC(=O)c1cc(Cl)cc(C)c1NC(=O)c1cc(Br)nn1-c1ncccc1Cl [Chlorantraniliprole, chlorantraniliprole, reference compound]
- mortality at 0.54 ppm [2, 8]: 0%
- mortality at 189.1 ppm [2, 8]: 59.2%
- mortality at 0.23 ppm [3, 9]: 21%
- mortality at 0.63 ppm [3, 9]: 42.3%
- pest or weed control at 2.08 ppm ([4]; Frankliniella occidentalis, 168 h, Table 3e, 2.08 ppm, read-out: Plant Protection (obs)): 63.3%
- pest or weed control at 28.7 ppm ([4]; Frankliniella occidentalis, 168 h, Table 3e, 28.7 ppm, read-out: Plant Protection (obs)): 60%

Compound: CCOP(=S)(OCC)Oc1nc(Cl)c(Cl)cc1Cl [Chlorpyrifos, chlorpyrifos, reference compound]
- mortality at 0.173 ppm [3, 9]: 17.7%
- mortality at 0.624 ppm [3, 9]: 37.9%

Compound: Cc1c(COC(=O)[C@@H]2[C@H](/C=C(\Cl)C(F)(F)F)C2(C)C)cccc1-c1ccccc1 (racemic) [Bifenthrin, bifenthrin, reference compound]
- mortality at 50 ppm [2, 8]: 0%
- mortality at 250 ppm [2, 8]: 0%
- mortality at 50 ppm [3, 9]: 28.7%
- mortality at 250 ppm [3, 9]: 58.2%
- pest or weed control at 50 ppm ([4]; Frankliniella occidentalis, 168 h, Table 3f, 50 ppm, read-out: Plant Protection (obs)): 36.7%
- pest or weed control at 250 ppm ([4]; Frankliniella occidentalis, 168 h, Table 3f, 250 ppm, read-out: Plant Protection (obs)): 70%

Compound: CCOCn1c(-c2ccc(Cl)cc2)c(C#N)c(Br)c1C(F)(F)F [Chlorfenapyr, chlorfenapyr, reference compound]
- pest or weed control at 3.7 ppm [1, 7]: 66.7%
- pest or weed control at 5 ppm [1, 7]: 53.3%

Compound: COc1cccc(C(=O)NN(C(=O)c2cc(C)cc(C)c2)C(C)(C)C)c1C [Methoxyfenozide, methoxyfenozide, reference compound]
- pest or weed control at 2.8 ppm [1, 7]: 36.7%

Compound: CNC(=O)ON=C(C)SC [Methomyl, methomyl, reference compound]
- pest or weed control at 8.5 ppm [1, 7]: 43.3%

Compound: O=C1C=C(N(Cc2ccc(Cl)nc2)CC(F)F)CO1 [Flupyradifurone, 4-[[(6-chloro-3-pyridinyl)methyl](2,2-difluoroethyl)amino]-2(5H)-furanone, reference compound]
- mortality at 0.02 ppm [3, 9]: 23.4%
- mortality at 0.075 ppm [3, 9]: 48%

Compound: CC1(C)C(C=C(Cl)Cl)C1C(=O)OCc1cccc(Oc2ccccc2)c1 (centres unmarked) [Permethrin, permethrin, reference compound]
- mortality at 0.0004 ppm [3, 9]: 15.6%
- mortality at 0.04 ppm [3, 9]: 32.1%

Compound: N#Cc1nn(-c2c(Cl)cc(C(F)(F)F)cc2Cl)c(N)c1[S+]([O-])C(F)(F)F (centres unmarked) [Fipronil, fipronil, reference compound]
- mortality at 0.78 ppm [5, 10]: 65.2%
- mortality at 1.197 ppm [5, 10]: 85.5%

Compound: CCc1nn(C)c(C(=O)NCc2ccc(Oc3ccc(C)cc3)cc2)c1Cl [Tolfenpyrad, tolfenpyrad, reference compound]
- mortality at 0.192 ppm [3, 9]: 29%
- mortality at 0.753 ppm [3, 9]: 61.9%

Compound: CC(COc1ccc(Oc2ccccc2)cc1)Oc1ccccn1 (centres unmarked) [Pyriproxyfen, pyriproxyfen, reference compound]
- mortality at 0.053 ppm [2, 8]: 68%

Compound: emamectin benzoate [reference compound]
- Plant Protection (obs) ([1]; Table 6f, 0.03 ppm): 43.3
- Plant Protection (obs) ([1]; Table 6f, 0.06 ppm): 23.3

Compound: C/C(=N\C#N)N(C)Cc1ccc(Cl)nc1 [Acetamiprid, acetamiprid, reference compound]
- mortality at 2.52 ppm [2, 8]: 6.5%
- mortality at 6.88 ppm [2, 8]: 25.4%
- mortality at 0.03 ppm [3, 9]: 21.1%
- mortality at 0.06 ppm [3, 9]: 45.1%
- Plant Protection (obs) ([4]; Table 3b, applied alone, 5.49 ppm): 30.0%
- Plant Protection (obs) ([4]; Table 3b, applied alone, 7.04 ppm): 70.0%

Compound: CC(C)N1C(=O)N(c2ccccc2)CS/C1=N\C(C)(C)C [Buprofezin, buprofezin, reference compound]
- mortality at 0.524 ppm [5, 10]: 83.7%
- mortality at 0.984 ppm [5, 10]: 94.6%

Compound: spinetoram [reference compound]
- % Mortality (obs) ([5]; 8.46 ppm): 7.5%
- % Mortality (obs) ([5]; 20.79 ppm): 14.1%
- % Mortality (obs) ([2]; Table 2h, 5 ppm): 0%
- % Mortality (obs) ([2]; Table 2h, 29.5 ppm): 64.4%
- % Mortality (obs) ([3]; Table 5f, 50 ppm): 51.2%
- % Mortality (obs) ([3]; Table 5f, 250 ppm): 73.9%

Compound: O=[N+]([O-])NC1=NCCN1Cc1ccc(Cl)nc1 [Imidacloprid, imidacloprid, reference compound]
- mortality at 0.09 ppm [5, 11]: 29.2%
- mortality at 0.16 ppm [5, 11]: 20%
- mortality at 15.1 ppm [2, 8]: 0%
- mortality at 21.15 ppm [2, 8]: 24.7%
- mortality at 0.05 ppm [3, 9]: 33.3%
- mortality at 0.1 ppm [3, 9]: 6.7%
- Plant Protection (obs) ([4]; Table 3c, applied alone, 6.4 ppm): 66.7%
- Plant Protection (obs) ([4]; Table 3c, applied alone, 10.9 ppm): 86.7%
- mortality at 0.82 ppm [6]: 53.3%
- mortality at 2.25 ppm [6]: 40%

Compound: N#CCNC(=O)c1cnccc1C(F)(F)F [Flonicamid, flonicamid, reference compound]
- % Mortality (obs) ([3]; Table 5k, 0.027 ppm): 24.2%
- % Mortality (obs) ([3]; Table 5k, 0.267 ppm): 49.3%

Compound: COC(=O)N(C(=O)N1CO[C@@]2(C(=O)OC)Cc3cc(Cl)ccc3C2=N1)c1ccc(OC(F)(F)F)cc1 [Indoxacarb, indoxacarb, reference compound]
- % Mortality (obs) ([2]; Table 2g, 50 ppm): 1.2%
- % Mortality (obs) ([2]; Table 2g, 250 ppm): 0%
- Plant Protection (obs) ([1]; Table 6e, 0.2 ppm): 70
- Plant Protection (obs) ([1]; Table 6e, 0.5 ppm): 70
- % Mortality (obs) ([3]; Table 5h, 50 ppm): 23.4%
- % Mortality (obs) ([3]; Table 5h, 250 ppm): 37.5%
- Plant Protection (obs) ([4]; Table 3g, 50 ppm): 10.0
- Plant Protection (obs) ([4]; Table 3g, 250 ppm): 36.7

— patent US12419307B2, “Mixtures comprising indazole pesticides” (FMC Corporation, priority 2019, dated 2025)
